For 3 substances, IC50 results are on record in patent US20080182834A1, “Multi-Nuclear Metal Complexes Partially Encapsulated by Cucurbit[7-12]Urils” (NEWSOUTH INNOVATIONS PTY LIMITED, priority 2004, published 2008).

In assay [1] the test system is L1210/DDP cisplatin resistant cells. Kind of assay: In vitro cytotoxic activity against cisplatin resistant L1210/DDP cells. The class given is cell-based, murine. The conditions noted are these: concentration required to inhibit cell growth by 50%.
Assay [2] has as its system L1210 murine leukaemia cells. Nature of the assay: In vitro cytotoxic activity against L1210 murine leukaemia cells. The class given is cell-based. To be noted: concentration required to inhibit cell growth by 50%.

As usually defined, the IC50 is the point on the concentration scale where inhibition reaches its midpoint. “{trans-diamminebis{trans-diamminechloro(μ-1,6-hexanediamine)platinum(II)}platinum(II)}nitrate [BBR3464]”: the IC50 in assay [1] was 0.0245 µM; in assay [2] it was 0.057 µM.

As to “{trans-diamminechloro(μ-dipyrazolylmethane)platinum(II)}chloride [Di-Pt]”, the results for the IC50 in assay [1] and in assay [2] were 8.8 µM and 3.8 µM, respectively.

On to “{trans-diamminechloro(μ-spermidine)platinum(II)}chloride [BBR3571]”, for which the figures for the IC50 in assay [1] and in assay [2] were 0.0075 µM and 0.0115 µM, respectively.
